Experiment [1] has as its target T1, deamidated triosephosphate isomerase (dTPI) (Homo sapiens, UniProt P60174, N16D).
T1 construct: gene TPI1; recombinant human TPI, His-TEV tag removed
Put plainly: recombinant enzyme inactivation ([…] h, […] °C; coupled NADH assay), ANS fluorescence. The following applies: 2 h; read-out: recombinant enzyme inactivation (2 h, 37 °C; coupled NADH assay), ANS fluorescen. Type of experiment: biochemical.

The target of experiment [2] is T1, deamidated triosephosphate isomerase (dTPI). Put plainly: recombinant enzyme inactivation ([…] h, […] °C; coupled NADH assay), Ellman free-thiol quantification, ANS fluorescence. Type of experiment: biochemical. The following applies: 2 h; read-out: recombinant enzyme inactivation (2 h, 37 °C; coupled NADH assay), Ellman free-th.

SMILES strings stand for the structures.

T1 sequence (P60174 2-249 N16D): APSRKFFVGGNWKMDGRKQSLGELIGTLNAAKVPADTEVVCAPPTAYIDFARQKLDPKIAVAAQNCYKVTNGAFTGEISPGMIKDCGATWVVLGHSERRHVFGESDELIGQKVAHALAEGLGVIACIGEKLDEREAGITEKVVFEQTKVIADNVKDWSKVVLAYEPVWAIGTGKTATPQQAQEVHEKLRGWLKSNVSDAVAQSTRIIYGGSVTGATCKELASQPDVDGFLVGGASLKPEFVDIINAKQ

With `COc1cc(/C=C/C(=O)CC(=O)/C=C/c2ccc(O)c(OC)c2)ccc1O` [CU, curcumin], in experiment [1], the IC90 is roughly 1500 µM.

Regarding `CCN(CC)C(=S)SSC(=S)N(CC)CC` [DS, disulfiram], the IC100 in experiment [2] stood at 250 µM.

The values are drawn from paper PMC11506356, “Selective Inhibition of Deamidated Triosephosphate Isomerase by Disulfiram, Curcumin, and Sodium Dichloroacetate: Synergistic Therapeutic Strategies for T-Cell Acute Lymphoblastic Leukemia in Jurkat Cells” (Biomolecules, 2024).
